Nine compounds from PubChem BioAssay (NCI) can be followed below.

What all share (assay): NCI anticancer screen, dose series, 48 h
Assay [1] deals with SK-MEL-28 melanoma.
In assay [2] the test system is UO-31 renal.
The subject of assay [3] is SR leukemia.
In assay [4] the test system is HOP-62 NSCLC.
Assay [5] deals with DU-145 prostate.
The test system of assay [6] is MOLT-4 leukemia.
For assay [7], the system named is NCI-H522 lung.
The test system of assay [8] is A498 renal.

Values joined by “and” are separate entries in the source; they are usually repeats but may differ in a detail not shown here. Equal entries are not always repeated.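 The compound was tested at five concentrations on cells cultured in 96-well plates, with a 48-hour exposure period. GI50 marks 50% less growth. The concentration for full growth arrest is given as TGI.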

As for `Cc1[nH]c2ccccc2c1CO`, the GI50 in assay [1] was 16.6 µM; in assay [2] it was 10.9 µM; in assay [3], 25.1 µM; in assay [4], 28.1 µM; in assay [5], 0.0457 µM; in assay [6], 25.1 µM. Besides, the GI50 in assay [7] was 12.8 µM; in assay [8], 17.2 µM. Besides, the TGI is 34.3 µM in assay [1]; 31.7 µM in assay [2]; greater than 100 µM in assay [3]; greater than 100 µM in assay [4]; 18.1 µM in assay [5]; 91.6 µM in assay [6]. The values for the TGI in assay [7] and in assay [8] were 28.9 µM and 56.2 µM, respectively.
Take `Clc1ccc(-c2cnc3c(-c4ccnc(N5CCNCC5)c4)cnn3c2)cc1`: the GI50 in assay [1] is 1.79 µM; in assay [2], 1.61 µM; in assay [3] it was 1.6 µM; in assay [4], 1.92 µM; in assay [5], 1.64 µM; in assay [6] it was 1.75 µM. Besides, the figures for the GI50 in assay [7] and in assay [8] were 2.37 µM and 1.65 µM, respectively. Further, the TGI in assay [1] was determined as 3.2 µM; in assay [2] it was 3.59 µM; in assay [3] it was 4.58 µM; in assay [4] it was 3.38 µM; in assay [5], 3.02 µM; in assay [6] it was 3.7 µM. Moreover, the values for the TGI in assay [7] and in assay [8] were 5.89 µM and 3.06 µM, respectively.
Take `CCOC(=O)c1c(NN2CCN(CC(F)(F)F)CC2)oc(/C=C2\C=Nc3ncccc32)c1O`: the GI50 in assay [1] was 11 µM; in assay [2], 5.11 µM; in assay [3], 0.689 µM; in assay [4], 5.03 µM; in assay [5] it was 4.75 µM; in assay [6], 2.79 µM. Further, the GI50 in assay [7] was 1.05 µM; in assay [8], 3.62 µM. The TGI amounted to 29.9 µM in assay [1]; 28.9 µM in assay [2]; 3.81 µM in assay [3]; 21.8 µM in assay [4]; 23.7 µM in assay [5]; 9.37 µM in assay [6]. The values for the TGI in assay [7] and in assay [8] were 11.1 µM and 9.62 µM, respectively.
For `O=C1CN=C(c2ccc[nH]2)c2cc(Cl)ccc2N1`, the GI50 in assay [1], in assay [2], in assay [3], in assay [4], in assay [5] and in assay [6] was greater than 100 µM throughout. In addition, the GI50 was 25.2 µM in assay [7] and greater than 100 µM in assay [8]. Further, the TGI in assay [1], in assay [2], in assay [3], in assay [4], in assay [5] and in assay [6] was greater than 100 µM in each case. For the same compound, the TGI in assay [7] and in assay [8] was greater than 100 µM each time.
Regarding `Cc1ccc(-c2cc(C(=O)Nc3ccc(S(=O)(=O)N4CCCCC4)cc3)[nH]n2)c(O)c1`, the GI50 in assay [1] was greater than 100 µM; in assay [2], greater than 100 µM; in assay [3], 22.3 µM; in assay [4] it was greater than 100 µM; in assay [5], greater than 100 µM; in assay [6], 55.1 µM. Besides, the GI50 in assay [7] and in assay [8] was greater than 100 µM each time. The TGI in assay [1], in assay [2], in assay [3], in assay [4], in assay [5] and in assay [6] was greater than 100 µM each time. The TGI in assay [7] and in assay [8] was greater than 100 µM each time.
`COc1cc2c3c(n(CCCN=[N+]=[N-])c(=O)c2cc1OC)-c1ccc(F)cc1C3=O`: the GI50 in assay [1] was 49.2 µM; in assay [2] it was 5.14 µM; in assay [3], 0.449 µM; in assay [4], 4.18 µM; in assay [5], 4.19 µM; in assay [6] it was 2.7 µM. Moreover, the GI50 in assay [7] was 4.89 µM; in assay [8] it was 39.6 µM. The TGI is greater than 100 µM in assay [1]; greater than 100 µM in assay [2]; 2.68 µM in assay [3]; greater than 100 µM in assay [4]; greater than 100 µM in assay [5]; 28.5 µM in assay [6]. Besides, the TGI in assay [7] and in assay [8] was greater than 100 µM throughout.
With `CCn1nc(C2CCN(C(=O)CCO)CC2)nc1-c1cnc(N)c(-c2nnc(C(C)(C)C)o2)n1`, the GI50 in assay [1] is 4.78 µM; in assay [2], 0.966 µM; in assay [3], 15.5 µM; in assay [4], 5.01 µM; in assay [5], 16.7 µM; in assay [6], 2.33 µM. Besides, the values for the GI50 in assay [7] and in assay [8] were 15.3 µM and 0.617 µM, respectively. Also, the TGI is greater than 100 µM in assay [1]; 51.7 µM in assay [2]; greater than 88.4 µM in assay [3]; greater than 100 µM in assay [4]; greater than 100 µM in assay [5]; 39.2 µM in assay [6]. Besides, the TGI was determined as 63.5 µM in assay [7] and 5.12 µM in assay [8].
In the case of `COc1cc(CSc2nc3ccc(Cl)cc3c(=O)n2Cc2ccccc2)cc(OC)c1OC`, the GI50 is 3.05 µM in assay [1]; 4.4 µM in assay [2]; 0.59 µM in assay [3]; 2.88 µM in assay [4]; 4.46 µM in assay [5]; 4.41 µM in assay [6]. For the same compound, the GI50 in assay [7] was 0.652 µM; in assay [8], 1.89 µM. The TGI in assay [1] was 43.9 µM; in assay [2] it was greater than 100 µM; in assay [3], 27.6 µM; in assay [4], 18.2 µM; in assay [5] it was greater than 100 µM; in assay [6], greater than 100 µM. The TGI was determined as 4.54 µM in assay [7] and 8.2 µM in assay [8].
With `CC(=O)O[C@@H]1c2c(c3c(=O)c4cccc(O)c4c(=O)c=3c2=[N+]=[N-])[C@H](OC(C)=O)[C@@H](OC(C)=O)[C@]1(C)O`, the GI50 is 0.829 µM in assay [1]; 0.167 µM in assay [2]; 0.0582 µM in assay [3]; 0.295 µM in assay [5]; 0.0675 µM in assay [6]; 0.0693 µM in assay [7]. Also, the GI50 in assay [8] is 1.34 µM. For the same compound, the TGI in assay [1] is 1.51 µM and 2.28 µM; in assay [2], 1.19 µM and 0.352 µM; in assay [3], 0.37 µM and 0.36 µM; in assay [4] it was 1.37 µM and 1.98 µM; in assay [5] it was 1.05 µM and 1.17 µM; in assay [6] it was 0.275 µM and 0.358 µM. For the same compound, the TGI in assay [7] is 0.776 µM and 0.201 µM; in assay [8] it was 1.82 µM and 3.02 µM.
